Legend:
[1] = tested on: human cortical slice cultures; assay: Human cortical slice culture, Mbp transcript by qPCR; format: cell-based; conditions: 9 days treatment; read-out: EC50 of Mbp increase by qPCR
Procedure: Cortical slices from regions containing both white and gray matter were generated from fresh human adult donor tissue and cultured for 10 days.
Human donor brain was received 14 h after death on wet ice. Upon receipt, the brain was immediately placed into-ice cold DPBS without calcium or magnesium. Cortical regions containing gray-white border were isolated then sliced on a McIlwain tissue chopper set at 400 µm thickness. […] Slices were then processed for qPCR or immunohistochemistry.
Evaluation of Mbp transcript in human brain slice culture: After compound treatment, slices were immediately transferred to lysis buffer and RNA extracted using the RNEasy Mini kit (Qiagen). Reverse transcription was performed using QScript (QuantaBio) followed by qPCR with Perfecta PCR SuperMix (QuantaBio) on a StepOne Plus Thermocycler (ABI). Primers used were as follows: 18S rRNA F: […] R: […]; Mbp: […] R: […]. Cycling parameters: 95 °C 30 s, then repeat 45×: 95 °C for 5 s, 60 °C for 15 s, followed by melt curve analysis. Data was calculated using 2^−ΔΔCt , normalizing to 18S RNA and vehicle.

[2] = tested on: human brain meningeal fibroblasts; assay: LPA-induced activation of human meningeal fibroblasts (COL1+ area); format: cell-based; conditions: LPA stimulation, read-out: IC50 of inhibition of increase in COL1+ area
Procedure: Recent work from Dorrier et al., has implicated persistent fibrotic scarring in the CNS in the mouse EAE model and that the contributing cells were of meningeal origin. […] We cultured primary rat or human brain meningeal fibroblasts and applied 10 µM LPA to induce activation. Upon LPA stimulation, we saw a change in morphology that could be quantified as a change in collagen I (COL1^+) area.
Meningeal fibroblasts were obtained from IxCells (San Diego, CA) and plated at 5000 cells per well according to manufacturer's protocol. […] Cells were stained and imaged as described with rat meningeal fibroblasts.
Supplemental Figure 8. […] A. Rat primary meningeal fibroblasts were isolated and serum starved overnight. […] Cells were fixed and immunostained with a collagen 1a1 antibody (green) and counterstained with Hoechst (blue). […] Cells were fixed and immunostained with a collagen I antibody (green) and counterstained with Hoechst (blue). […] C. […] Collagen 1a1 (green), Hoechst (blue). Scale bar 50 µm. One-way ANOVA with Dunnett’s; * p<0.05, ** p<0.01, *** p<0.001, **** p<0.0001.

[3] = tested on: rat OPCs; assay: OPC differentiation assay (PDGF withdrawal, MBP+ oligodendrocytes); format: cell-based; conditions: PDGF removed, 3 days treatment, percent of T3 induced differentiation; read-out: EC50 of increase in differentiated MBP+ oligodendrocytes
Procedure: Given the expression of Lpar1 on OPCs, we wanted to know how direct, exogenous application of LPA would affect OPC differentiation. Using the same PDGF withdrawal paradigm to induce OPC differentiation, we added various concentrations of LPA to the culture media and quantified MBP^+ oligodendrocytes 3 days later.
Primary rat OPCs were isolated and cultured in the presence of PDGF. One day later, PDGF was removed and various doses of PIPE-791 were added to the cultures. These cultures were fixed 3 days post-PIPE-791 treatment and immunostained for MBP.
OPC isolation: For immunopanning purification of OPCs, cortical hemispheres were dissected from postnatal day 8 Sprague–Dawley rat pups. Tissue culture dishes were incubated overnight with goat IgG secondary antibodies to mouse (Jackson Laboratories, Bar Harbor, ME). Dishes were rinsed and incubated at room temperature with primary antibodies for Ran-2, GalC and O4 (gift from Jonah Chan lab). Rodent cortical hemispheres were minced and dissociated with papain (Thermo Fisher, Waltham, MA) for 1 h at 37°. After dissociation, cells were resuspended in a panning buffer (0.2% BSA in DPBS) and incubated at room temperature sequentially on three immunopanning dishes: Ran-2 and GalC were used for negative selection before positive selection with O4. […]

[4] = tested on: CC1+/OLIG2+ oligodendrocytes; assay: In vivo CC1 induction assay; parameters: species or system mouse; conditions: single 3 mg/kg dose, brains collected 5 days later
From the text: Sections were immunostained for the mature oligodendrocyte marker, CC1, and the oligodendroglial marker, OLIG2 to represent the total OPC/oligodendrocyte population.
Female C57Bl/6 mice (9–11 weeks old) were used in this experiment, n = 5/group. […] On day 5, mice were sacrificed and brains submerged in formalin. Tissue was sectioned at 40 µm on a sliding microtome (ThermoFisher, Microm HM450, Waltham, MA). Four sections per mouse were immunostained. Sections were permeabilized and blocked by incubation with 20% goat serum (Millipore Sigma, St. Louis, MO) and 0.2% Triton X-100 (Millipore Sigma, St. Louis, MO) in PBS. Oligodendrocytes were detected with a rat monoclonal antibody to Anti-APC (1:500, Calbiochem, San Diego, CA), and the total pool OPC/oligodendrocyte pool were detected with a rabbit monoclonal antibody to Olig-2 (1:500, Invitrogen, Carlsbad, CA). Alexa Fluor 594 and 647 IgG secondary antibodies against rat and rabbit (1:1000, Invitrogen, Carlsbad, CA) were used for primary antibody detection. Cell nuclei were identified with Hoechst (1:1000, Invitrogen, Carlsbad, CA). […] Detection and quantification of the cells were performed using NIS Elements imaging software (Nikon, Minato, Tokyo).
Supplemental Figure 5. […] Sections were immunostained using antibodies against CC1 (mature oligodendrocytes), Olig2 (oligodendroglial marker), and counterstained with Hoechst. […]

## COc1ccc(NC(=O)N(c2ccccc2C(C)C)C2CCC(C(=O)O)CC2)c(OC(F)F)n1 (stereo not shown) [PIPE-791]
[1]
  EC50: 4.2 nM
[2]
  IC50: 4.5 nM
[3]
  EC50: 108 nM
[4]
  increase in CC1+/OLIG2+ oligodendrocytes: 163%

Reference: publication PMC11079064, “Discovery of a brain penetrant small molecule antagonist targeting LPA1 receptors to reduce neuroinflammation and promote remyelination in multiple sclerosis” (Scientific Reports, 2024)
